Bridges are numbered along the chain shown (N, C = ends). [ ]: non-standard residue; d: D form. Abu = CC[C@H](N)C(=O)O
Assays:
Assay type in all cases: cell-based
[1] = test system: Ser40 phosphorylation of Th in MN9D cells; assay: Th Ser40 phosphorylation in MN9D cells (western blot, P-Ser40/total Th)
Procedure: FIG. 6. PDE2a is an important effector regulating Ser40 phosphorylation in MN9D cells. MN9D cultures were treated with IBMX or BAY-60-7550 (50 μM), a PDE2A-selective inhibitor. Cells were analyzed on western-blot for phosphorylation of Ser40 , total Th, and actin.
(§1) FIG. 7. PDE2a is an important effector regulating Ser40 phosphorylation in MN9D cells. BAY-60-7550 dose-curve and representative examples in MN9D (n=9, red) and HEK cells (n=4, blue) (Mean±SEM). Cells were treated with various concentrations of BAY 60-7750 and analyzed for Th phosphorylation on Ser40 , total Th and actin.
FIG. 10. PDE11 is an important effector regulating Ser40 phosphorylation in MN9D cells. BC 11-38 dose-curve and representative examples in MN9D (n=2) (Mean±SEM). IBMX served as a control and was used at 100 μM. Cell were analyzed for phosphorylation of Th on Ser40 and total Th was used as a loading control to determine phosphorylation specific effects.
24 hours prior to the administration of the different compounds, cells were serum-starved with DMEM medium supplemented with L-glutamine and Pen&Strep. Unless otherwise stated, the concentration of the different reagents is reported in Table 1 and the duration of the treatment was 1 hour.
Cells were harvested in 150 μL of Laemmli sample buffer (2% SDS, 10% glycerol, 60 mM Tris-Cl pH 6.8, 0.01% bromophenol blue, 50 mM freshly added DTT). Wells were duplicated in pairs and pooled into the same tubes to minimize variability. Samples were sonicated at maximum potency during 3 minutes, heated at 95° C. for 5 minutes and spun down briefly before loading. Running gels were 10% polyacrylamide except for the GUCY2C detection, which was optimal in 7% gels (375 mM Tris-Cl pH 8.8, 0.1% APS, 0.1% SDS, 0.04% TEMED). Stacking gels were 5% polyacrylamide (125 mM Tris-Cl pH 6.8, 0.1% APS, 0.1% SDS, 0.04% TEMED).
Up to 35 μL of sample was loaded in each slot and run in the presence of tris-glycine buffer and 0.1% SDS. Running conditions were 100 V during the first 20 minutes, followed by 160 V until the migration front reached the bottom of the gel. The transference was performed at 100 V onto 0.2 μm nitrocellulose membranes, in the presence of tris-glycine buffer and 20% methanol. The blotting duration was 140 minutes except for the detection of GUCY2C, which was transferred during 240 minutes in the presence of 0.1% SDS. Membranes were then submerged in Ponceau S solution to check blotting efficiency (0.1% Ponceau S, 5% acetic acid). After several washings with DEMI water, blots were incubated during 1 hour in the presence of 5% milk powder and TBS-T (154 mM NaCl, 49.5 mM Tris-Cl pH 7.4, 0.1% Tween-20). The incubation with the primary antibodies was performed O/N at 4° C. in TBS-T (consult Table 2 for dilution and species). Membranes were rinsed in TBS-T during 1 hour to remove the excess antibody. The incubation with the secondary antibodies took place during 60 minutes at room temperature (1:10,000 dilution in TBS-T, with the exception of the goat secondary which was diluted 1:20,000). Secondary antibodies were fused to the horseradish peroxidase and raised against the host species of the primary antibody. After additional washings during 1 hour, blots were exposed to an enhanced chemiluminescence solution and the signal was detected using an Odyssey imager (LI-COR). Band densitometry was performed with LI-COR Image Studio Lite. For graph quantifications, ‘Fold Change’ represents the ratio P-Ser40/Total Th. Statistical comparisons between pair of groups correspond to unpaired Student's t-tests, as calculated with GraphPad Prism. Asterisks denote the following p-values: *<0.05, **<0.01, ***<0.001, ****<0.0001.
IBMX is a non-selective PDE inhibitor, therefore we investigated the effect of inhibiting a specific PDE selectively on Ser40 phosphorylation. To study the effect of PDE2A inhibition on Ser40 phosphorylation we treated the dopaminergic cell-line MN9D with Bay BAY-60-7550 and analyzed the effects. […]

[2] = test system: Ser40 phosphorylation of Th in HEK cells transfected with Th; assay: Th Ser40 phosphorylation in HEK cells transfected with Th (western blot); conditions: HEK transfected with Th, 500 μM, 48 hours post-plating
Procedure: FIG. 3. HEK cells are a suitable model to study GUCY2C-induced Ser40 phosphorylation. (A) RT-qPCR data from intact HEK extracts. Input material was 10 ng of total RNA. Cp corresponds to the cycle number in which the expression starts to be considered positive. (−) represents the water control, which is negative in every case. (B) HEK cultures were transfected with Th and treated with a cGMP analogue 48 hours post-plating. Changes in Ser40 phosphorylation were studied. The graph represents the statistical analysis (n=6; Mean±SEM). Unpaired Student's t-test (p-value: ****<0.0001). Hereon, ‘Fold Change’ corresponds to the ratio P-Ser40/Total Th.
as §1
HEK cells were maintained in 100-mm Petri dishes and grown in DMEM medium supplemented with L-glutamine, penicillin-streptomycin (Pen&Strep) and 10% heat-inactivated fetal bovine serum (HIFBS). Growing conditions were 37° C. and 5% CO2. For every-other-day passages, HEK cultures were split at a 1:3 dilution. From Friday to Monday, the split proportion was doubled for all cell lines. For passaging, cultures were rinsed with PBS and incubated with 1 mL of trypsin during 5 minutes. Cells were resuspended in growth medium and finally split to the proper dilution. The experiments were performed in 12-well plates. For immunocytochemistry analysis, sterile 18-mm coverslips were added prior to the plating. 500 !μL of cell resuspension was seeded in each well. If experiments were to be performed 48 hours after the plate preparation, 1:5 was the seeding ratio for HEK cells. When the experiments took place 96 hours post-plating, 1:7 was the working dilution for HEK cells. Unless otherwise stated, HEK cultures were processed 96 hours post-plating.
HEK cells were transfected using the calcium-phosphate method. […]

GUCY2C = GUCY2C (Homo sapiens, UniProt P25092); assay: GUCY2C ligand analysis in HEK-293 cells transfected with GUCY2C and Th (WES); set-up: expressed in transfected cells; host or cells: HEK-293 cells transfected with GUCY2C and Th; conditions: 10 μM, Th Ser40 corrected for total Th, n=3
Procedure: Potential GUCY2C ligands were tested in HEK-293 cells transfected with GUCY2C and Th and subsequently treated and analyzed by automated western (WES). Th Ser40 was corrected for total Th. Controls were set to 1. Significance is determined by two-tailed t-test on n=3. * p<0.05, **p<0.01, ***p<0.005, “”p<0.001. A) Guanylin control 10 μM. B) Peptides 1 to 5 in an amount of 10 μM. C) Peptides 6 to 11 in an amount of 10 μM.
We designed novel peptides with different activities with respect to endogenous GUCY2C ligands (Table 3). The peptides were analyzed in Th and GUCY2C transfected HEK-293 cells and subsequently tested ex-vivo in mice striatal slices. […] We synthezised uroguanylin and heat stable toxin as controls for the synthezised peptides and they thus are from a different source than the commercially available uroguanylin and heat stable toxin. […] Possibly the effects of the peptides can differ depending on the area in the striatum which is stimulated.

[3] = test system: Th Ser40 phosphorylation in mouse striatum slices; assay: Th Ser40 phosphorylation in mouse striatal slices ex vivo (WES automated western); conditions: for Fold change (average), P-S40 TH/TTH / effects in striatal slices (significance, in words): 1 h; for Fold change (average), P-S40 TH/TTH: WES; for effects in striatal slices (significance, in words): peptides 10 μM, mouse striatal slices
Source text: FIG. 13. Bay 60-7550 and Guanylin synergize to induce Ser40 phosphorylation Analysis of striatal slices treated with indicated compounds. WES data showing the phosphorylation of Th on Serine 40 is shown as well as total Th levels (a). From left to right are sequential striatal slices from rostral to caudal. Every slice is split into left and right hemisphere and either treated with compounds or vehicle. Left a positive and negative control is shown (Neuro2a cells transfected with Th or empty vector). The amount of Th Ser40 is corrected for the amount of total Th and shown in the bar graph (b). Each individual slice is indicated by a different symbol. Signficance is determined using a 2-tailed paired t-test. 2-tailed paired t-test: p=0.006.
Adult mice with an average of 5 weeks were sacrificed and the brain was quickly removed and sliced into coronal sections of 250 μm using a vibratome. Sections containing striatum were micro-dissected to remove non-striatal structures. Hemispheres were separated and one hemisphere was treated with compounds whereas the counter-hemisphere was treated with vehicle. Treatment of slices occurred in carbonized artificial cerebrospinal fluid (aCSF). After treatments, slices were lyzed in SDS containing sample buffer, sonicated, and heated at 95° C. Samples were analyzed on a WES automated western system (Protein Simple) according to manufacturer's instructions.
To investigate the effect of PDE2 inhibition in the mouse brain, an ex-vivo approach using brain slices was utilized. Coronal slices of mouse striatum were prepared and treated with BAY-60 7550 diluted in aCSF and subsequently analyzed by a WES automated western system. […] PDE2 is thus expressed in dopaminergic neurons and PDE2 protein and Th protein are present in the synaptic terminals of the neurons which project from the midbrain dopamine system to the striatum. To investigate the effects of GUCY2C ligands on Th activation, coronal slices of the mouse striatum were prepared, treated with guanylin and analyzed for Th Ser40 phosphorylation as was done for BAY-60-7550. […] The machinery for producing dopamine is thus present in the synaptic terminals where dopamine is released. […] Since both BAY 60-7550 and guanylin increased Th phosphorylation at 10μM, but not at 1 μM, we examined the effect of combining BAY 60-7750 and guanylin at 1μM.

GUCY2C, sequence (P25092 24-1073): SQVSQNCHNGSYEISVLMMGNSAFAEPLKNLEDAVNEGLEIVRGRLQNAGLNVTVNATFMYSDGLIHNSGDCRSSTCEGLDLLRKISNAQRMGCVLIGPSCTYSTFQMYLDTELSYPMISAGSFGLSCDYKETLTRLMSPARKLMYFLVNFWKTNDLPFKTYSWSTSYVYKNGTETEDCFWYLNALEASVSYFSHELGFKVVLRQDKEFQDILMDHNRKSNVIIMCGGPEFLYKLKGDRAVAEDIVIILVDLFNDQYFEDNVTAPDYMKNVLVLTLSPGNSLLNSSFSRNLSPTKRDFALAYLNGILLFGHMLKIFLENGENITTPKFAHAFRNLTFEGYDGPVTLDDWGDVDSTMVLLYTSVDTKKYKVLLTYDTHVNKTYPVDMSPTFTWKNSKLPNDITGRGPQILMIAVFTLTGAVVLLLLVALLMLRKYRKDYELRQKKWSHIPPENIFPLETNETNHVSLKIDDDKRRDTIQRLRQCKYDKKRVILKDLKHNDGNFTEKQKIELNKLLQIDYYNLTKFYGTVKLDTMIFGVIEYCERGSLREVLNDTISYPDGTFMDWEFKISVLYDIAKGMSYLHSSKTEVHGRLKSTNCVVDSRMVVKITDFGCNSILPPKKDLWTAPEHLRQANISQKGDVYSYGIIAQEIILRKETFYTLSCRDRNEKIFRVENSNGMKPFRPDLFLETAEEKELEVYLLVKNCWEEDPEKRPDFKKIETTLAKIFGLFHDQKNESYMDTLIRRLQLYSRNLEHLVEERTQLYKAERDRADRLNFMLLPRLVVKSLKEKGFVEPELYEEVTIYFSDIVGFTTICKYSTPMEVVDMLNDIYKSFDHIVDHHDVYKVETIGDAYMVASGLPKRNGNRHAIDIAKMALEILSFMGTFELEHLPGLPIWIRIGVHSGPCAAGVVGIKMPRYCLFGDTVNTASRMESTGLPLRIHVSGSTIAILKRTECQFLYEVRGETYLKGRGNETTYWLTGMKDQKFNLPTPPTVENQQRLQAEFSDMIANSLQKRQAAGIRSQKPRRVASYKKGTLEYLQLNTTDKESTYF

Row | Compound | Ser40 phosphorylation in HEK-293 cells (significance, in words) (GUCY2C) | Fold change (average), P-S40 TH/TTH ([3]; 10 μM, striatal slices) | further results
1 | CCCSc1nc2c(c(=O)n1-c1ccccc1)SCC2 [BC 11-38] | – | – | performance versus IBMX on Ser40 phosphorylation ([1]; IBMX 100 μM as control): performed less well than the positive control IBMX; phosphorylation of Th on Ser40 as compared to total Th (in words) ([1]; dose-curve): increase in the phosphorylation of Th on Ser40
2 | Nc1nc2c(nc(Br)n2[C@@H]2O[C@@H]3COP(=O)(O)O[C@H]3[C@H]2O)c(=O)[nH]1 [Peptide 8-Bromo-cGMP, 8-Bromo-cGMP] | – | – | P-Ser40 levels upon compound administration [2]: small but significant increase
3 | H-NDCCELCCNVACTGCL-OH [Peptide 4] | significant effects | 1.00 | –
4 | H-NDDCELCVNVACTGCL-OH (disulfide 4-12, 7-15; SMILES CC(C)C[C@H](NC(=O)[C@@H]1CSSC[C@@H]2NC(=O)[C@H](CC(C)C)NC(=O)[C@H](CCC(=O)O)NC(=O)[C@@H](NC(=O)[C@H](CC(=O)O)NC(=O)[C@H](CC(=O)O)NC(=O)[C@@H](N)CC(N)=O)CSSC[C@H](NC(=O)[C@H](C)NC(=O)[C@H](C(C)C)NC(=O)[C@H](CC(N)=O)NC(=O)[C@H](C(C)C)NC2=O)C(=O)N[C@@H]([C@@H](C)O)C(=O)NCC(=O)N1)C(=O)O) [Peptide 1] | did not show any significant effects | – | effects in striatal slices (significance, in words) [3]: did not show any significant effects
5 | H-NDDCELCVNVACTGCLL-OH (disulfide 4-12, 7-15; ends not checked) [Peptide 2] | significant effects | 2.23 | rank of fold change in striatal slices ([3]; 10 μM, striatal slices): largest fold change; effects in striatal slices (significance, in words) [3]: not significant
6 | H-NDDCELCVNVVCTGCL-OH (disulfide 4-12, 7-15; ends not checked) [Peptide 5] | – | 1.22 | –
7 | H-NTFYCCELCCAPACTGCY-OH [Peptide 10] | significant effects | 1.44 | –
8 | H-NTFYCCELCCNPACAGCY-OH (disulfide 5-10, 6-14, 9-17; ends not checked) [Peptide 9] | significant effects | 1.37 | –
9 | H-NTFYCCELCCNPaCAGCY-OH [Peptide 11] | significant effects | 1.20 | –
10 | H-QEECELCINMACTGCL-OH (disulfide 4-12, 7-15; ends not checked) [Peptide 8] | significant effects | 0.89 | –
11 | H-QEECEL[Abu]INMACTGY-OH (cysteine pairing not given here) [Peptide 6] | significant effects | 0.88 | –
